Measured values from patent publication US9745267B2, “Compounds as modulators of RORC” (Boehringer Ingelheim International GmbH, priority 2013, dated 2017).

target: T1, RORγt (hRORC LBD) (Homo sapiens, UniProt P51449); test: RGA Assay: nuclear receptor transactivation assay, RORγt transactivation of a luciferase reporter; assay type: cell-based; details: transiently transfected HEK 293 cells, Gal4DBD hRORC LBD, 20-24 hours incubation
T1 construct: expressed in transfected cells; host or cells: HEK 293 (transient cotransfection with pGL4.3 luc2P/GAL4UAS/Hygro reporter)
T1 sequence (P51449 269-508 limits assumed): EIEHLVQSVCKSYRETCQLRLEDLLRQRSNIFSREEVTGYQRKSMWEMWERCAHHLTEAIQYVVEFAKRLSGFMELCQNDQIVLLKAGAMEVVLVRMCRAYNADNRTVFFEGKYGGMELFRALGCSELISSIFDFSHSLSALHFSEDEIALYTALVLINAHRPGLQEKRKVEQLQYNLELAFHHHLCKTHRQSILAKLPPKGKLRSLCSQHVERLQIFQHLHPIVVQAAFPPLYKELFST
Method: A nuclear receptor transactivation assay was performed to quantitate the ability of test compounds to inhibit RORγt transactivation of a luciferase reporter. A similar assay is described in: Khan et al., Bioorganic & Medicinal Chemistry Letters 23 (2013), 532-536. The system uses transiently transfected HEK 293 cells cotransfected with two plasmids (pGL4.3, luc2P/GAL4UAS/Hygro, and pBIND, Gal4DBD hRORC LBD1-3). The positive control is co-transiently transfected with both plasmids, and the negative control contains the pGL4.3 promoter sequence. Assays were assembled in 384 well plates where transiently transfected cells and test compound at varying concentrations were incubated for 20-24 hours. The next day, assays plates are taken out and equilibrated at RT for 20-30 minutes. Bright-Glo™ Luciferase Assay System is used to detect Luciferase production. After addition of Bright GLO detection reagent, the plates were incubated at RT for 20 minutes. The plates were read on an Envision plate reader to measure luminescence signal. The RLU signal is converted to POC relative to control and blank wells.
Compound Dilution Buffer:
Bright Glo Luciferase Assay System: Promega #E2620
Thaw lysis buffer provided in kit, add 100 mL lysis buffer to substrate powder.

Row | Structure (SMILES) | IC50 [nM]
1 | CCC1(C2CC2)CN(C(=O)NCc2ccc(S(=O)(=O)CC)cc2)c2ccc(-c3c(OC)ncnc3C3CC3)cc21 (stereo not shown) [Example 118] | 470
2 | CCS(=O)(=O)c1ccc(CNC(=O)N2CC(C)(C3CC3)c3cc(-c4c(OC)ncnc4C4CC4)ccc32)cc1 (stereo not shown) [Example 120] | 280
3 | CCS(=O)(=O)c1ccc(CNC(=O)N2CC3(CCCC3)c3cc(-c4cc(CN5CCC(C#N)CC5)ccc4C)ccc32)cc1 [Example 123] | 600
4 | CCS(=O)(=O)c1ccc(CNC(=O)N2C[C@@](C)(C3CC3)c3cc(-c4c(OC)ncnc4C4CC4)ccc32)cc1 [Example 126] | 400
5 | CCS(=O)(=O)c1ccc(CNC(=O)N2CC3(CCC3)c3cc(-c4c(OC)ncnc4C4CC4)ccc32)cc1 [Example 128] | 210
6 | CCS(=O)(=O)c1ccc(CNC(=O)N2CC3(CCC3)c3cc(-c4c(OC)ncnc4C4CC4)ccc32)nc1 [Example 129] | 370
7 | CCS(=O)(=O)c1ccc(CNC(=O)N2CC3(CCCC3)c3cc(-c4c(OC)nc(N(C)C)nc4C4CC4)ccc32)cc1 [Example 130] | 310

The remaining compounds from weak to strong by IC50, led by results:

Row | IC50 [nM] | Structure (SMILES)
8 | 1400 | CCS(=O)(=O)c1ccc(CNC(=O)N2CC3(CCCC3)c3cc(-c4cc(CN5CCS(=O)(=O)CC5)ccc4C)ccc32)cc1 [Example 124]
9 | 1100 | CCS(=O)(=O)c1ccc(CNC(=O)N2CC3(CCCC3)c3cc(-c4c(OC)nc(C)nc4C4CC4)ccc32)cc1 [Example 122]
10 | 1100 | CCS(=O)(=O)c1ccc(CNC(=O)N2CC3(CC3)c3cc(-c4c(OC)ncnc4C4CC4)ccc32)cc1 [Example 125]
11 | 600 | CCS(=O)(=O)c1ccc(CNC(=O)N2CC3(CCCC3)c3cc(-c4c(OC)ncnc4OC)ccc32)cc1 [Example 121]
12 | 500 | CCS(=O)(=O)c1ccc(CNC(=O)N2C[C@](C)(C3CC3)c3cc(-c4c(OC)ncnc4C4CC4)ccc32)cc1 [Example 127]
13 | 320 | CCS(=O)(=O)c1ccc(CNC(=O)N2CC3(CCCC3)c3cc(-c4cnc(N(C)C)nc4C4CC4)ccc32)cc1 [Example 119]
